Experimental data taken from US20230339981A1, “KRAS G12D MODULATING COMPOUNDS” (priority 2022, published 2023).

Assays:
GDP-loaded KRAS G12D = GDP-loaded KRAS G12D (Homo sapiens (Human), UniProt P01116, G12D); experiment: KRAS G12D (GDP) biochemical assay (TR-FRET probe displacement); format: binding; conditions: 2 hours
Summary of the method: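 Compound pre-incubated 30 min with GDP-loaded KRAS G12D in 50 mM Hepes pH 7.4, 150 mM NaCl, 5 mM MgCl2, 0.005% Tween-20, then Eu-streptavidin and TR-FRET probe added. After 2 h at room temperature, TR-FRET ratio read; IC50 is 50% ratio decrease, sigmoidal fit.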

GP2D (KRAS G12D) cells = experiment: 2D cell viability assay (CellTiter-Glo); format: cell-based; conditions: GP2d, 96 h, 4 days
Summary of the method: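 GP2D (KRAS G12D) cells, 1000/well in RPMI + 10% FBS, were plated onto compound (1:3 DMSO series) and grown 4 days at 37 °C, 5% CO2 in 2D. CellTiter-Glo luminescence was read; EC50 is the concentration giving 50% signal decrease, from sigmoidal fit.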

Chain of GDP-loaded KRAS G12D (P01116-2 other isoform, or with tags, fused parts or gaps G12D): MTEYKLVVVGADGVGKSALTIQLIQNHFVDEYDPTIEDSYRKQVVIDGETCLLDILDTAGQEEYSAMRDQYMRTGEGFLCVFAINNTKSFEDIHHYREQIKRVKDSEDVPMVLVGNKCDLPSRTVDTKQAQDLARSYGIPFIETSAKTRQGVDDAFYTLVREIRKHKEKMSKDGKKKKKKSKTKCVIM

SMILES	IC50 (GDP-loaded KRAS G12D) [nM]	EC50 (GP2D (KRAS G12D) cells) [nM]
C#Cc1c(F)ccc2cc(O)cc(-c3nc4c5c(nc(OCC6(CN7CCC(C(F)(F)F)CC7)CC6)nc5c3F)N3C[C@H]5CC[C@H](N5)[C@H]3CC4)c12 [Example 69, 5-ethynyl-6-fluoro-4-((5aR,6S,9R)-1-fluoro-12-((1-((4-(trifluoromethyl)piperidin-1-yl)methyl)cyclopropyl)methoxy)-4,5,5a,6,7,8,9,10-octahydro-3,10a,11,13,14-pentaaza-6,9-methanonaphtho[1,8-ab]heptalen-2-yl)naphthalen-2-ol]	0.1	0.6
C#Cc1c(F)ccc2cccc(-c3nc4c5c(nc(OC[C@@]67CCCN6[C@H](COc6cc(C(F)(F)F)ncn6)CC7)nc5c3F)N3C[C@H]5CC[C@H](N5)[C@H]3CC4)c12 [Example 152, (5aR, 6S, 9R)-2-(8-ethynyl-7-fluoronaphthalen-1-yl)-1-fluoro-12-(((3S,7aS)-3-(((6-(trifluoromethyl)pyrimidin-4-yl)oxy)methyl)tetrahydro-1H-pyrrolizin-7a(5H)-yl)methoxy)-4,5,5a,6,7,8,9,10-octahydro-3,10a,11,13,14-pentaaza-6,9-methanonaphtho[1,8-ab]heptalene]	0.1	5.4
C#Cc1c(F)ccc2cc(O)cc(-c3nc4c5c(nc(OCC6(CN7CC[C@@H](C(F)(F)F)C7)CC6)nc5c3F)N3C[C@H]5CC[C@H](N5)[C@H]3CC4)c12 [Example 70, 5-ethynyl-6-fluoro-4-((5aR,6S,9R)-1-fluoro-12-((1-(((R)-3-(trifluoromethyl)pyrrolidin-1-yl)methyl)cyclopropyl)methoxy)-4,5,5a,6,7,8,9,10-octahydro-3,10a,11,13,14-pentaaza-6,9-methanonaphtho[1,8-ab]heptalen-2-yl)naphthalen-2-ol]	0.1	1
C#Cc1c(F)ccc2cccc(-c3nc4c5c(nc(OC[C@@]67CCCN6[C@H](COc6ccnc(C(F)(F)F)n6)CC7)nc5c3F)N3C[C@H]5CC[C@H](N5)[C@H]3CC4)c12 [Example 151, (5aR,6S,9R)-2-(8-ethynyl-7-fluoronaphthalen-1-yl)-1-fluoro-12-(((3S,7aS)-3-(((2-(trifluoromethyl)pyrimidin-4-yl)oxy)methyl)tetrahydro-1H-pyrrolizin-7a(5H)-yl)methoxy)-4,5,5a,6,7,8,9,10-octahydro-3,10a,11,13,14-pentaaza-6,9-methanonaphtho[1,8-ab]heptalene]	0.1	5
C#Cc1c(F)ccc2cccc(-c3nc4c5c(nc(OC[C@@]67CCCN6C[C@H](F)C7)nc5c3F)N3C[C@H]5CC[C@H](N5)[C@H]3C[C@H]4CC)c12 [Example 182, (4R,5aR,6S,9R)-4-ethyl-2-(8-ethynyl-7-fluoronaphthalen-1-yl)-1-fluoro-12-(((2R,7aS)-2-fluorotetrahydro-1H-pyrrolizin-7a(5H)-yl)methoxy)-4,5,5a,6,7,8,9,10-octahydro-3,10a,11,13,14-pentaaza-6,9-methanonaphtho[1,8-ab]heptalene]	0.4	87
C#Cc1c(F)ccc2cccc(-c3nc4c5c(nc(OC[C@@]67CCCN6C[C@H](F)C7)nc5c3F)N3C[C@H]5CC[C@H](N5)[C@@H]3[C@@H](C)C4)c12 [Example 84, (5S,5aS,6S,9R)-2-(8-ethynyl-7-fluoronaphthalen-1-yl)-1-fluoro-12-(((2R,7aS)-2-fluorotetrahydro-1H-pyrrolizin-7a(5H)-yl)methoxy)-5-methyl-4,5,5a,6,7,8,9,10-octahydro-3,10a,11,13,14-pentaaza-6,9-methanonaphtho[1,8-ab]heptalene]	3.9	27.7
C#Cc1c(F)ccc2cccc(-c3nc4c5c(nc(OC[C@@]67CCCN6[C@H](COC(C(F)(F)F)C(F)(F)F)CC7)nc5c3F)N3C[C@H]5CC[C@H](N5)[C@H]3CC4)c12 [Example 150, (5aR,6S,9R)-2-(8-ethynyl-7-fluoronaphthalen-1-yl)-1-fluoro-12-(((3S,7aS)-3-(((1,1,1,3,3,3-hexafluoropropan-2-yl)oxy)methyl)tetrahydro-1H-pyrrolizin-7a(5H)-yl)methoxy)-4,5,5a,6,7,8,9,10-octahydro-3,10a,11,13,14-pentaaza-6,9-methanonaphtho[1,8-ab]heptalene]	0.2	47.2
C#Cc1c(F)ccc2cc(O)cc(-c3nc4c5c(nc(OC[C@]67CCCN6C[C@H](OC(C(F)(F)F)(C(F)(F)F)C(F)(F)F)C7)nc5c3F)N3C[C@H]5CC[C@H](N5)[C@H]3CC4)c12 [Example 144, 5-ethynyl-6-fluoro-4-((5aR,6S,9R)-1-fluoro-12-((cis-2-((1,1,1,3,3,3-hexafluoro-2-(trifluoromethyl)propan-2-yl)oxy)tetrahydro-1H-pyrrolizin-7a(5H)-yl)methoxy)-4,5,5a,6,7,8,9,10-octahydro-3,10a,11,13,14-pentaaza-6,9-methanonaphtho[1,8-ab]heptalen-2-yl)naphthalen-2-ol]	83.1	100
C#Cc1c(F)ccc2cc(N)cc(-c3nc4c5c(nc(OC[C@@]67CCCN6C[C@H](F)C7)nc5c3F)N3C[C@H]5CC[C@H](N5)[C@@H]3CC[C@H]4C)c12 [Example 194, 5-ethynyl-6-fluoro-4-((4R,6aS,7S,10R)-1-fluoro-13-(((2R,7aS)-2-fluorotetrahydro-1H-pyrrolizin-7a(5H)-yl)methoxy)-4-methyl-5,6,6a,7,8,9,10,11-octahydro-4H-3,11a,12,14,15-pentaaza-7,10-methanocyclohepta[4,5]cycloocta[1,2,3-de]naphthalen-2-yl)naphthalen-2-amine]	31	70
Oc1cc(-c2nc3c4c(nc(OC[C@@]56CCCN5C[C@H](F)C6)nc4c2F)N2C[C@H]4CC[C@H](N4)[C@H]2CO3)c2c(C=C(F)F)c(F)ccc2c1 [Example 10, 5-(2,2-difluorovinyl)-6-fluoro-4-((5aS,6S,9R)-1-fluoro-12-(((2R,7aS)-2-fluorotetrahydro-1H-pyrrolizin-7a(5H)-yl)methoxy)-5a,6,7,8,9,10-hexahydro-5H-4-oxa-3,10a,11,13,14-pentaaza-6,9-methanonaphtho[1,8-ab]heptalen-2-yl)naphthalen-2-ol]	18	250
C#Cc1c(F)ccc2cc(O)cc(-c3nc4c5c(nc(OC[C@@]67CCCN6C[C@H](OC(C(F)(F)F)(C(F)(F)F)C(F)(F)F)C7)nc5c3F)N3C[C@H]5CC[C@H](N5)[C@H]3CC4)c12 [Example 129, 5-ethynyl-6-fluoro-4-((5aR,6S,9R)-1-fluoro-12-((trans-2-((1,1,1,3,3,3-hexafluoro-2-(trifluoromethyl)propan-2-yl)oxy)tetrahydro-1H-pyrrolizin-7a(5H)-yl)methoxy)-4,5,5a,6,7,8,9,10-octahydro-3,10a,11,13,14-pentaaza-6,9-methanonaphtho[1,8-ab]heptalen-2-yl)naphthalen-2-ol]	2.7	13.3
C#Cc1c(F)ccc2cc(O)cc(-c3nc4c5c(nc(OC[C@@]67CCCN6C[C@H](F)C7)nc5c3F)N3C[C@H]5CC[C@H](N5)[C@@H]3CCO4)c12 [Example 77, 5-ethynyl-6-fluoro-4-((6aS,7S,10R)-1-fluoro-13-(((2R,7aS)-2-fluorotetrahydro-1H-pyrrolizin-7a(5H)-yl)methoxy)-5,6,6a,7,8,9,10,11-octahydro-4-oxa-3,11a,12,14,15-pentaaza-7,10-methanocyclohepta[4,5]cycloocta[1,2,3-de]naphthalen-2-yl)naphthalen-2-ol]	6	83
C#Cc1c(F)ccc2cc(N)cc(-c3nc4c5c(nc(OC[C@@]67CCCN6C[C@H](F)C7)nc5c3F)N3C[C@H]5CC[C@H](N5)[C@@H]3[C@@H](C)C4)c12 [Example 196, 5-ethynyl-6-fluoro-4-((5S,5aS,6S,9R)-1-fluoro-12-(((2R,7aS)-2-fluorotetrahydro-1H-pyrrolizin-7a(5H)-yl)methoxy)-5-methyl-4,5,5a,6,7,8,9,10-octahydro-3,10a,11,13,14-pentaaza-6,9-methanonaphtho[1,8-ab]heptalen-2-yl)naphthalen-2-amine]	0.1	1.8
C#Cc1c(F)ccc2cc(O)cc(-c3nc4c5c(nc(OC[C@@]67CCCN6[C@H](COc6cc(C(F)(F)F)ncn6)CC7)nc5c3F)N3C[C@H]5CC[C@H](N5)[C@H]3CC4)c12 [Example 149, 5-ethynyl-6-fluoro-4-((5aR,6S,9R)-1-fluoro-12-(((3S,7aS)-3-(((6-(trifluoromethyl)pyrimidin-4-yl)oxy)methyl)tetrahydro-1H-pyrrolizin-7a(5H)-yl)methoxy)-4,5,5a,6,7,8,9,10-octahydro-3,10a,11,13,14-pentaaza-6,9-methanonaphtho[1,8-ab]heptalen-2-yl)naphthalen-2-ol]	< 0.1	0.3
C#Cc1c(F)ccc2cccc(-c3nc4c5c(nc(OC[C@@]67CCCN6C[C@@H](OC(C(F)(F)F)(C(F)(F)F)C(F)(F)F)C7)nc5c3F)N3C[C@H]5CC[C@H](N5)[C@H]3CC4)c12 (stereo in doubt) [Example 135, (5aR,6S,9R)-2-(8-ethynyl-7-fluoronaphthalen-1-yl)-1-fluoro-12-((cis-2-((1,1,1,3,3,3-hexafluoro-2-(trifluoromethyl)propan-2-yl)oxy)tetrahydro-1H-pyrrolizin-7a(5H)-yl)methoxy)-4,5,5a,6,7,8,9,10-octahydro-3,10a,11,13,14-pentaaza-6,9-methanonaphtho[1,8-ab]heptalene]	88.1	100
